Measured values published in PMC3849192, “A Simple Method for Assessing Free Brain/Free Plasma Ratios Using an In Vitro Model of the Blood Brain Barrier” (PLoS ONE, 2013).

Assays:
[1] = Fraction unbound brain (fu,br), brain homogenate equilibrium dialysis; conditions: brain homogenate (10%), 1 µM, equilibrium dialysis 18 hrs at 37°C
Description: The degree of brain binding was assessed by equilibrium dialysis. Brain homogenate (10%) was spiked with test compound at 1 µM in triplicate. […] The plate was then placed in a shaker/incubator to equilibrate for 18 hrs at 37°C. […] After the addition of 50 µl of buffer to the brain homogenate samples, 150 µl of acetonitrile was added to each sample. Finally, 50 µl of water was added to all buffer and brain homogenate samples. The plates were centrifuged and the supernatant analyzed by LC-MS/MS.

[2] = Fraction unbound brain (fu,br), brain slice method; conditions: rat brain slices 300 µm, 1 µM, 5 h incubation
Description: Rats (male Sprague-Dawley) were decapitated under isoflurane anesthesia and the brains were removed carefully and immersed in ice-cold oxygenated physiological buffer at pH7.4. A 6 mm coronal section was cut with a razor and mounted with cyanoacrylate glue onto the tray of the microslicer (DTK-Zero 1 Microslicer, Dosak) after which six to eight 300 µm coronal slices from striatal areas were prepared. […] The compounds were dissolved at 1 µM in the buffer and the solution was incubated with the slice for 5 h.
After 5 h, the brain slices were weighed and homogenized in 9 volumes (w/v) of ECF buffer with a sonicator (SONICS VCX 500 and VCX 130). The slice homogenates in ECF buffer were stored at −20°C prior to analysis. The concentrations of the test compound in the brain slice homogenate and in the ECF buffer was determined by LC-MS/MS.
The unbound volume of distribution Vu,brain, or free fraction fu,brain was calculated according to the following equations: [drawing 1] [drawing 2] where Cslice, CECF and V0 are amount of drug in the slice, the drug concentration in the ECF (representing the drug concentration in the brain ECF, i.e. the free concentration), and the water adhesion of the brain slice. V0 has been estimated using ^14C -inulin in a separate experiment in which brain slices were incubated for 1, 2, and 4 min. V0 was obtained from brain slice uptake – inulin time profile (apparent zero-time intercept).

[3] = tested on: in vitro BBB model (co-culture of bovine brain capillary endothelial cells and rat glial cells); test: In vitro BBB co-culture model, Cu,br/Cu,pl ratio; conditions: for In vitro Cu,br/Cu,pl Mean 1 h: 2 µM in luminal compartment, abluminal/luminal concentration at 1 h; for In vitro Cu,br/Cu,pl Mean steady-state: steady-state ratio computed from 1 h data with the blue-norna steady-state calculator
Description: Figure 1 Schematic diagram of the experimental protocol. After 12 days of coculture in cell culture medium, both compartments of the in vitro BBB model consisting of a coculture of brain capillary endothlial cells and rat primary glial cells were filled with Hepes-buffered Ringer’s solution and the compounds dissolved at 2 µM were added in the luminal compartment (i.e donor). The presence of glial cells in the abluminal compartment was used to reproduce the non specific binding to brain tisssue within the brain prenchyma in vivo. After 1 hour, aliquots were taken from both compartments. In vitro Cu,br/Cu,pl at 1 h were calculated by dividing the concentration in the abluminal compartment (∼Cu,br) by the concentration in the luminal compartment (∼Cu,pl) at 1 h. The experimental data at 1 h were computed using the blue-norna steady-state calculator to generate the in vitro steady-state Cu,br/Cu,pl.
One hour after the addition of compounds dissolved at 2 µM in the luminal (i.e upper) compartment, aliquots were taken from both compartments previously filled with Hepes-buffered Ringer’s solution at the beginning of the experiment. […] The concentrations in both compartments of the in vitro assay after 1 h were computed using […] blue-norna.com to generate the in vitro steady-state Cu,br/Cu,pl.
The method of Dehouck et al. was used with minor modifications (Fig. 1). Bovine brain endothelial cells isolated from capillary fragments were cocultured with primary mixed glial cells from newborn Sprague–Dawley rats. The glial cells were isolated according to the method of Booher and Sensenbrenner and cultured for 3 weeks, plated on the bottom of cell culture clusters containing six wells each. The endothelial cells were seeded onto collagen-coated polycarbonate cell culture inserts (4.7 cm^2) (Corning Incorp. NY, USA), which were placed in the wells containing glial cells. The medium used for the coculture was Dulbecco’s modified Eagle’s medium supplemented with 10% calf serum, 10% horse serum, 2 mmol/L glutamine, 50 mg/L gentamicin and 1 µg/L basic fibroblast growth factor (Sigma). The medium was changed every second day. Experiments were usually initiated after 12 days of co-culture.
To monitor the integrity of the endothelial cell monolayer, the marker molecule [^14C] sucrose was added to the solution at a concentration of 0.05 µCi/ml. At the start of the transport experiments, buffered Ringer’s solution (pH = 7.4) was added to wells with glial cells. Inserts with brain endothelial cells were placed in these wells and drug solutions at 2 µM were added to the donor compartment. The plates were incubated for 1 h in a polymix shaker at 37°C with a low shaking velocity. Aliquots were taken from the donor compartment in the beginning and at the end of the experiments. The receiver compartments were sampled at the end of the experiments.
The amount of radiotracer in the abluminal compartment was measured in a liquid scintillation analyser (Packard Instrument Company, Meriden, USA). […] The concentrations of the test compound in all samples were analysed by MS/MS.
The mean free brain/plasma ratios were calculated from three individual experiments. One hour ratios were calculated by dividing the drug concentration in the receiver compartment by the free drug concentration in the donor compartment after 1 h. The experimental data at one hour (i.e concentration in both compartment at the beginning of the experiment and after 1 h) were computed using the blue-norna® steady-state calculator (www.blue-norna.com) to predict the in vivo steady-state Cu,br/Cu,pl ratios. For further details on this calculation method see file S1.
The in vivo steady-state Cu,br/Cu,pl were predicted from the in vitro experimental data collected after one hour according to the following equation: […]
Cdonor, t and Creceiver, t are the concentration of drug in the donor and receiver chambers at time t.

CN1CCN(C2=Nc3cc(Cl)ccc3Nc3ccccc32)CC1 [Clozapine]
fubrain (homog.) Mean [1]: 0.0094 | fubrain (slice) Mean [2]: 0.0100 | In vitro Cu,br/Cu,pl Mean 1 h [3]: 0.10 | In vitro Cu,br/Cu,pl Mean 1 h ([3]; listed as clozapine): 0.103 | In vitro Cu,br/Cu,pl Mean steady-state [3]: 0.71 | In vitro Cu,br/Cu,pl Mean steady-state ([3]; listed as clozapine): 0.713
